Calls of active or inactive are those of the source.
Tests used:
[1] = biological target: T1, Androgen receptor (Homo sapiens) (UniProt P10275); conditions: MDA-kb2
T1 sequence (whole entry): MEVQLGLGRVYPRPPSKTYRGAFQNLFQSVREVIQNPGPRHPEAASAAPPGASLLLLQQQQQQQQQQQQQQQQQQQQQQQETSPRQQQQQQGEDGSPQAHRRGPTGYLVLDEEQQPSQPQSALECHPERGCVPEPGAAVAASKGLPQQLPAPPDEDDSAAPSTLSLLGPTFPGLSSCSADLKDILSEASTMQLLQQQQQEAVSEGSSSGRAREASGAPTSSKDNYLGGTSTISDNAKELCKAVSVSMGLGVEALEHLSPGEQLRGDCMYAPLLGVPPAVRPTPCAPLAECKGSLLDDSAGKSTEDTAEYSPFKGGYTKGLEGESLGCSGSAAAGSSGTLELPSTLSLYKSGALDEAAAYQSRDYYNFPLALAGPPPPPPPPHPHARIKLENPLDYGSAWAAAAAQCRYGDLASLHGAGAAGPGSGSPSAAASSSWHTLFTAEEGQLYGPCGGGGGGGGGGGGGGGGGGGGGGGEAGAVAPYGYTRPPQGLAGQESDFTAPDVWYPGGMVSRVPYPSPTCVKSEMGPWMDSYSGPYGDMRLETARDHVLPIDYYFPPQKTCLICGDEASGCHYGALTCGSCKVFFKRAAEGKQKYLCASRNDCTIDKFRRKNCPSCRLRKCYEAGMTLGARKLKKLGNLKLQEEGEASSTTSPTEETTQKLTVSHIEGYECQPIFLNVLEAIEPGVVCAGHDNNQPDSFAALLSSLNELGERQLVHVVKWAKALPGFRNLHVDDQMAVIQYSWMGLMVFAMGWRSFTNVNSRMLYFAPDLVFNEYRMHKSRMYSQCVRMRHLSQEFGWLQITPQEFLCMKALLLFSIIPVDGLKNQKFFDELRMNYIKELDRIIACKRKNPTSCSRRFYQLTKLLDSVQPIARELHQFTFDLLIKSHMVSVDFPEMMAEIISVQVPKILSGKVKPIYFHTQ
Description: Agonist activity at androgen receptor in human MDA-kb2 cells assessed as stimulation of luciferase activity at 100 uM by luciferase reporter gene assay

[2] = biological target: T2, Glucocorticoid receptor (Homo sapiens) (UniProt P04150); conditions: MDA-kb2
T2 sequence (whole entry): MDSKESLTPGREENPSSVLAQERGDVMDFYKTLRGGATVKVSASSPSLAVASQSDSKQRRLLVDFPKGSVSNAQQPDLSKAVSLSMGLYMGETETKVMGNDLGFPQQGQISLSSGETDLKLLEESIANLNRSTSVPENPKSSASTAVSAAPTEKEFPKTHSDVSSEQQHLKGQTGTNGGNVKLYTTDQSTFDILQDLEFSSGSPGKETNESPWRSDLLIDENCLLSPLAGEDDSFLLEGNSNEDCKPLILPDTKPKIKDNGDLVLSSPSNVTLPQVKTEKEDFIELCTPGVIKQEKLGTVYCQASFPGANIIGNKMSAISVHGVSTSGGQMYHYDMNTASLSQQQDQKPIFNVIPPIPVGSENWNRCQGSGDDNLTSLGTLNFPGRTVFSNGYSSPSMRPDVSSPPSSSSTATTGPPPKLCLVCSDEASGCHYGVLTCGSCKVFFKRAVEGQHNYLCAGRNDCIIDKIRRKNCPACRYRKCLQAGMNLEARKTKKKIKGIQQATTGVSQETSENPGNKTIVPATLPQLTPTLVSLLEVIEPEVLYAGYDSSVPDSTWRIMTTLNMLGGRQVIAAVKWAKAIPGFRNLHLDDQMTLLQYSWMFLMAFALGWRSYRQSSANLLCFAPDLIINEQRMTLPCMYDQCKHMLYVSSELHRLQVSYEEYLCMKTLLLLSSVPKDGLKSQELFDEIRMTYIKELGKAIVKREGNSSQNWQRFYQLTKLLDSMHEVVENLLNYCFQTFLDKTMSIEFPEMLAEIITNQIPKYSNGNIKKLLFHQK
Description: Agonist activity at glucocorticoid receptor in human MDA-kb2 cells assessed as stimulation of luciferase activity at 100 uM by luciferase reporter gene assay

[3] = biological target: T2, Glucocorticoid receptor (Homo sapiens); conditions: MDA-kb2; remark: listed apart in the source
[4] = biological target: T1, Androgen receptor (Homo sapiens); conditions: MDA-kb2; remark: listed apart in the source
Description: Agonist activity at androgen receptor in human MDA-kb2 cells assessed as stimulation of luciferase activity by luciferase reporter gene assay

[5] = biological target: T2, Glucocorticoid receptor (Homo sapiens); test: Agonist activity at glucocorticoid receptor in human MDA-kb2 cells assessed as stimulation of luciferase activity at 0.03 mM by luciferase reporter gene assay in presence of androgen receptor agonist DHT; assay type: functional, cell-based
[6] = biological target: T2, Glucocorticoid receptor (Homo sapiens); test: Agonist activity at glucocorticoid receptor in human MDA-kb2 cells assessed as stimulation of luciferase activity by luciferase reporter gene assay in presence of glucocorticoid receptor agonist Dex; assay type: functional, cell-based
[7] = biological target: T3, Androgen receptor (Homo sapiens, UniProt P10275); test: Antagonist activity at androgen receptor in human MDA-kb2 cells assessed as inhibition of DHT-induced luciferase activity at 100 uM by luciferase reporter gene assay; assay type: functional, cell-based
T3 sequence (P10275 whole entry): T1 sequence (whole entry)

[8] = biological target: T3, Androgen receptor; test: Antagonist activity at androgen receptor in human MDA-kb2 cells assessed as inhibition of DHT-induced luciferase activity by luciferase reporter gene assay
[9] = biological target: T2, Glucocorticoid receptor (Homo sapiens); test: Ratio of compound EC150 to Dex EC150 for glucocorticoid receptor in human MDA-kb2 cells; assay type: cell-based
[10] = biological target: T2, Glucocorticoid receptor (Homo sapiens); test: Ratio of compound EC150 to DHT EC150 glucocorticoid receptor in human MDA-kb2 cells; assay type: cell-based
[11] = biological target: T1, Androgen receptor (Homo sapiens); test: Ratio of compound EC150 to DHT EC150 for androgen receptor in human MDA-kb2 cells; assay type: cell-based
[12] = biological target: T1, Androgen receptor (Homo sapiens); test: Ratio of compound EC150 to Dex EC150 for androgen receptor in human MDA-kb2 cells; assay type: cell-based
[13] = biological target: T2, Glucocorticoid receptor (Homo sapiens); test: Agonist activity at glucocorticoid receptor in human MDA-kb2 cells assessed as stimulation of luciferase activity by luciferase reporter gene assay in presence of androgen receptor agonist DHT; assay type: functional, cell-based

Structure (SMILES)	EC150 [3]	EC150 [4]	also measured
O=C1C[C@@H](c2ccc(O)cc2)Oc2cc(O)cc(O)c21			EC150 [1]: inactive; EC150 [2]: inactive
O=c1cc(-c2ccccc2)oc2cc(O)ccc12	3.1 µM	3.1 µM	
O=c1cc(-c2ccccc2)oc2ccc(O)cc12 [6-HYDROXYFLAVONE]	7.1 µM	7.1 µM	Activity [5]: inactive; EC150 [6]: 4.1 µM; AR antagonist activity at 100 uM (active/inactive) [7]: Not Active
O=c1cc(-c2ccccc2)oc2ccccc12 [FLAVONE]	26.1 µM	26.1 µM	IC50 [8]: 5.9 µM; IC50 ([8]; mda-kb2): 5.9 µM
O=c1cc(-c2ccccc2)oc2cc(O)c(O)c(O)c12	18.9 µM	18.9 µM	Activity [6]: Active
COc1ccc2oc(-c3ccccc3)cc(=O)c2c1	0.7 µM	0.7 µM	Ratio [9]: 3.6; Ratio [10]: 1400; Ratio [11]: 1400; Ratio [12]: 3.6
C[C@]12CCC(=O)C[C@@H]1CC[C@@H]1[C@@H]2CC[C@]2(C)[C@@H](O)CC[C@@H]12	0.0005 µM		
O=c1cc(-c2ccc(O)c(O)c2)oc2cc(O)cc(O)c12	18 µM	18 µM	
O=c1c(O)c(-c2ccccc2)oc2ccc(O)cc12	1.54 µM		Activity [6]: Active
COc1ccc2c(c1)OC(c1ccccc1)CC2=O (stereo not drawn)			EC150 [1]: inactive; EC150 [2]: inactive
O=C1c2ccc(O)cc2OC(c2ccc(O)c(O)c2)C1O (stereo not drawn)			EC150 [1]: inactive; EC150 [2]: inactive
COc1ccc(-c2cc(=O)c3c(O)cc(O)cc3o2)cc1	2.1 µM	2.1 µM	
Cc1ccc2oc(-c3ccccc3)cc(=O)c2c1	3.6 µM	3.6 µM	
O=c1c(O)c(-c2ccccc2)oc2cc(O)cc(O)c12	633 µM	633 µM	
COc1cc(O)c2c(=O)c(-c3ccc(O)cc3)coc2c1 [PRUNETIN]	3.2 µM	3.2 µM	AR antagonist activity at 100 uM (active/inactive) [7]: Not Active
O=C1CC(c2ccccc2)Oc2ccc(O)cc21 (stereo not drawn)			EC150 [1]: inactive; IC50 [8]: 3.3 µM; EC150 [2]: inactive
COc1ccc2oc(-c3ccccc3)c(O)c(=O)c2c1	10.3 µM	10.3 µM	
COc1ccc2c(=O)cc(-c3ccccc3)oc2c1	21.9 µM	21.9 µM	
O=C1CC(c2ccccc2)Oc2ccccc21 (stereo not drawn) [FLAVANONE]	380 µM	380 µM	IC50 [8]: 20 µM
O=c1cc(-c2ccccc2)oc2ccc(Cl)cc12	12.6 µM	12.6 µM	
O=c1cc(-c2ccccc2)oc2cc(O)cc(O)c12 [CHRYSIN]	1.5 µM	1.5 µM	Activity [13]: Active; AR antagonist activity at 100 uM (active/inactive) [7]: Active
O=c1c(O)c(-c2ccc(O)c(O)c2)oc2cc(O)ccc12			EC150 [1]: inactive; EC150 [2]: inactive
O=c1cc(-c2ccccc2)oc2cccc(O)c12	6 µM	6 µM	
O=c1c(O)c(-c2ccccc2)oc2ccccc12 [FLAVONOL]			EC150 [1]: inactive; IC50 [8]: 23.5 µM; EC150 [2]: inactive
COc1ccc2c(c1)C(=O)CC(c1ccccc1)O2 (stereo not drawn)	4.08 µM		IC50 [8]: 39.5 µM
O=c1c(-c2ccc(O)cc2)coc2cc(O)ccc12 [DAIDZEIN]	10.1 µM	10.1 µM	AR antagonist activity at 100 uM (active/inactive) [7]: Not Active
COc1cccc2oc(-c3ccccc3)cc(=O)c12	5.5 µM	5.5 µM	IC50 [8]: 8.7 µM
O=c1c(-c2ccc(O)cc2)coc2cc(O)cc(O)c12 [GENISTEIN]	4.4 µM	4.4 µM	Ratio [9]: 23; Ratio [10]: 10000; Ratio [11]: 10000; IC50 [8]: 1300 µM; Ratio [12]: 23
